ChEMBL document CHEMBL5537176, “Discovery of Novel Pyridazine-Tethered Sulfonamides as Carbonic Anhydrase II Inhibitors for the Management of Glaucoma” (J Med Chem, 2024)

Target: Carbonic anhydrase 9 (Homo sapiens, UniProt Q16790)
Test: Inhibition of human CA IX assessed as inhibition constant by stopped-flow CO2 hydrase assay method

Ki: 3.2 nM
Structure (SMILES): COc1cc2c(cc1OC)-c1c(c(C(=O)Nc3ccc(S(N)(=O)=O)cc3)nn1C)C2
